We go through 5 compounds from patent US20220386606A1, “SPECIFICALLY SUBSTITUTED 3-PHENYL-5-SPIROCYCLOPENTYL-3-PYRROLIN-2-ONES AND THEIR USE AS HERBICIDES” (Bayer Aktiengesellschaft, priority 2019, published 2022).

In assay [1] the test system is SETVI. Put plainly: Post-emergence herbicidal action against SETVI. The class given is in vivo, Setaria viridis. The note with it: 80 g/ha, visual assessment about 3 weeks after treatment vs untreated controls. Here is the method:
(§1) Seeds of monocotyledonous and dicotyledonous weed and crop plants are laid out in sandy loam soil in wood-fiber pots, covered with soil and cultivated in a greenhouse under good growth conditions. 2 to 3 weeks after sowing, the test plants are treated at the one-leaf stage. The compounds of the invention, formulated in the form of wettable powders (WP) or as emulsion concentrates (EC), are then sprayed onto the green parts of the plants as aqueous suspension or emulsion at a water application rate equating to 600 to 800 l/ha with addition of 0.2% wetting agent. After the test plants have been left to stand in the greenhouse under optimal growth conditions for about 3 weeks, the action of the preparations is assessed visually in comparison to untreated controls (herbicidal action in percent (%): 100% activity=the plants have died, 0% activity=like control plants).

Assay [2] deals with AVEFA. The assay can be described thus: Post-emergence herbicidal action against AVEFA. The class given is in vivo, Avena fatua. The note with it: 80 g/ha, visual assessment after about 3 weeks. Here is the method: as §1
Assay [3] concerns ECHCG. Put plainly: Pre-emergence herbicidal action against ECHCG. It is filed as in vivo, Echinochloa crus-galli. The note with it: 320 g/ha, scored visually after 3 weeks vs untreated controls. The source says: (§2) Seeds of monocotyledonous and dicotyledonous weed plants and crop plants are laid out in sandy loam soil in wood-fiber pots and covered with soil. The compounds of the invention, formulated in the form of wettable powders (WP) or as emulsion concentrates (EC), are then applied to the surface of the covering soil as aqueous suspension or emulsion at a water application rate equating to 600 to 800 L/ha with addition of 0.2% wetting agent.
(§3) After the treatment, the pots are placed in a greenhouse and kept under good growth conditions for the trial plants. The damage to the test plants is scored visually after a test period of 3 weeks by comparison with untreated controls (herbicidal activity in percent (%): 100% activity=the plants have died, 0% activity=like control plants).

Assay [4] relates to LOLRI. Put plainly: Pre-emergence herbicidal action against LOLRI (Table 8, titled post-emergence at 320 g/ha). It is filed as in vivo, Lolium rigidum. The note with it: table stands in the pre-emergence section.
Excerpt: as §2, §3

Assay [5] relates to SETVI. Put plainly: Pre-emergence herbicidal action against SETVI. The class given is in vivo, Setaria viridis. To be noted: 320 g/ha, scored visually after 3 weeks vs untreated controls.
Excerpt: as §2, §3

Assay [6] relates to ALOMY. The assay can be described thus: Pre-emergence herbicidal action against ALOMY. The class given is in vivo, Alopecurus myosuroides. The note with it: 320 g/ha, scored visually after 3 weeks vs untreated controls.
Excerpt: as §2, §3

Assay [7] relates to DIGSA. The assay can be described thus: Pre-emergence herbicidal action against DIGSA. To be noted: 320 g/ha, scored visually after 3 weeks vs untreated controls. It is filed as in vivo, Digitaria sanguinalis.
Excerpt: as §2, §3

The test system of assay [8] is ECHCG. Put plainly: Post-emergence herbicidal action against ECHCG. The class given is in vivo, Echinochloa crus-galli. To be noted: 80 g/ha, visual assessment about 3 weeks after treatment vs untreated controls. The protocol:
as §1

The test system of assay [9] is LOLRI. The assay can be described thus: Post-emergence herbicidal action against LOLRI. The class given is in vivo, Lolium rigidum. The note with it: 80 g/ha, visual assessment about 3 weeks after treatment vs untreated controls. Here is the method:
as §1

The subject of assay [10] is AVEFA. Put plainly: Pre-emergence herbicidal action against AVEFA. It is filed as in vivo, Avena fatua. To be noted: 320 g/ha, scored visually after 3 weeks vs untreated controls.
Excerpt: as §2, §3

The test system of assay [11] is DIGSA. The assay can be described thus: Post-emergence herbicidal action against DIGSA. The class given is in vivo, Digitaria sanguinalis. To be noted: 80 g/ha, visual assessment about 3 weeks after treatment vs untreated controls. Here is the method:
as §1

The test system of assay [12] is ALOMY. Put plainly: Post-emergence herbicidal action against ALOMY. To be noted: 80 g/ha, visual assessment after about 3 weeks. It is filed as in vivo, Alopecurus myosuroides. The protocol:
as §1

A further assay deals with VIOTR. Put plainly: Pre-emergence herbicidal action against VIOTR. The class given is in vivo, Viola tricolor. The note with it: 320 g/ha.
Excerpt: as §2, §3

Consider `CC#Cc1cc(F)c(C2=C(OC(=O)OCC)C3(CCC(COC)C3)NC2=O)c(OC)c1` (stereo not shown) [Example P-63], for which the “Post-emergence action against SETVI in %” value in the assay with SETVI [1] was found to be 100%. Also, the “Post-emergence action against AVEFA in %” value in the assay with AVEFA [2] stood at 80%. Moreover, in the assay on ECHCG [3], the “Pre-emergence action against ECHCG in %” value was 90%. The “Pre-emergence herbicidal action against LOLRI in %” value with LOLRI [4] turned out to be 100%. Moreover, the “Pre-emergence action against SETVI in %” value with SETVI [5] was 100%. Besides, in the assay on ALOMY [6], the “Pre-emergence action against ALOMY in %” value is on record as 100%. In addition, the “Pre-emergence action against DIGSA in %” value with DIGSA [7] is 100%. Besides, in the assay with ECHCG [8], the “Post-emergence action against ECHCG in %” value is on record as 100%. Also, in the assay with LOLRI [9], the “Post-emergence action against LOLRI in %” value stood at 100%. For the same compound, the “Pre-emergence action against AVEFA in %” value in the assay with AVEFA [10] is on record as 90%. Also, the “Post-emergence action against DIGSA in %” value in the assay with DIGSA [11] came out at 100%. The “Post-emergence action against ALOMY in %” value with ALOMY [12] was determined as 100%.
With `CC#Cc1cc(Br)c(C2=C(O)C3(CCC(COCC)C3)NC2=O)c(OCC)c1` (stereo not shown) [Example I-63], the “Post-emergence action against SETVI in %” value with SETVI [1] is 100%. For the same compound, the “Post-emergence action against AVEFA in %” value with AVEFA [2] is 80%. The “Pre-emergence action against ECHCG in %” value in the assay with ECHCG [3] worked out at 100%. In the assay with LOLRI [4], the “Pre-emergence herbicidal action against LOLRI in %” value stood at 100%. For the same compound, the “Pre-emergence action against SETVI in %” value with SETVI [5] is given as 100%. Also, the “Pre-emergence action against ALOMY in %” value in the assay with ALOMY [6] was 100%. In addition, in the assay with DIGSA [7], the “Pre-emergence action against DIGSA in %” value is on record as 100%. Moreover, the “Post-emergence action against ECHCG in %” value in the assay with ECHCG [8] came to 100%. Moreover, the “Post-emergence action against LOLRI in %” value with LOLRI [9] came to 90%. The “Pre-emergence action against AVEFA in %” value in the assay with AVEFA [10] turned out to be 100%. Also, the “Post-emergence action against DIGSA in %” value in the assay on DIGSA [11] was 90%. Further, in the assay with ALOMY [12], the “Post-emergence action against ALOMY in %” value is listed as 100%.
As to `CC#Cc1cc(Br)c(C2=C(OC(=O)OCC)C3(CCC(COCC)C3)NC2=O)c(OCC)c1` (stereo not shown) [Example P-95], the “Post-emergence action against SETVI in %” value with SETVI [1] came out at 100%. In the assay with AVEFA [2], the “Post-emergence action against AVEFA in %” value was found to be 80%. For the same compound, the “Pre-emergence action against ECHCG in %” value in the assay with ECHCG [3] came out at 100%. Further, the “Pre-emergence herbicidal action against LOLRI in %” value in the assay on LOLRI [4] stood at 100%. In the assay on SETVI [5], the “Pre-emergence action against SETVI in %” value was found to be 100%. Further, in the assay on ALOMY [6], the “Pre-emergence action against ALOMY in %” value was 100%. The “Pre-emergence action against DIGSA in %” value with DIGSA [7] stood at 100%. For the same compound, the “Post-emergence action against ECHCG in %” value with ECHCG [8] turned out to be 100%. In the assay with LOLRI [9], the “Post-emergence action against LOLRI in %” value was determined as 90%. Moreover, the “Pre-emergence action against AVEFA in %” value in the assay with AVEFA [10] was determined as 100%. Moreover, in the assay on DIGSA [11], the “Post-emergence action against DIGSA in %” value came to 80%. Besides, in the assay on ALOMY [12], the “Post-emergence action against ALOMY in %” value was determined as 100%.
On to `CC#Cc1cc(C)c(C2=C(O)C3(CCC(COC)C3)NC2=O)c(OC)c1` (stereo not shown) [Example I-33], for which the “Post-emergence action against SETVI in %” value in the assay with SETVI [1] was determined as 100%. Also, in the assay with AVEFA [2], the “Post-emergence action against AVEFA in %” value came to 100%. Further, the “Pre-emergence herbicidal action against LOLRI in %” value in the assay on LOLRI [4] is 100%. In addition, the “Pre-emergence action against SETVI in %” value with SETVI [5] is given as 100%. For the same compound, the “Pre-emergence action against ALOMY in %” value with ALOMY [6] is reported as 100%. In addition, the “Pre-emergence action against DIGSA in %” value in the assay with DIGSA [7] was found to be 100%. The “Post-emergence action against ECHCG in %” value with ECHCG [8] turned out to be 100%. Besides, in the assay on LOLRI [9], the “Post-emergence action against LOLRI in %” value is 100%. Moreover, the “Pre-emergence action against AVEFA in %” value with AVEFA [10] came to 80%. Besides, the “Post-emergence action against DIGSA in %” value in the assay on DIGSA [11] was 100%. Besides, the “Pre-emergence action against VIOTR in %” value with VIOTR was 100%. Also, the “Post-emergence action against ALOMY in %” value with ALOMY [12] turned out to be 100%.
For `CC#Cc1cc(Br)c(C2=C(OC(=O)C(C)C)C3(CCC(COCC)C3)NC2=O)c(CC)c1` (stereo not shown) [Example P-43], the “Pre-emergence action against VIOTR in %” value with VIOTR worked out at 100%.
